Consider ten molecules from publication PMC7277541, “Antimicrobial and Antifungal Activities of Terpene-Derived Palladium Complexes” (Antibiotics, 2020).

≈ marks a conversion by molar mass, not a printed value. Where “and” joins values, the source holds several entries; their conditions need not be identical. Equal entries are not always repeated.

The test system of data set [1] is human embryonic kidney cells (HEK293, ATCC CRL-1573). The data set is described as follows: Cytotoxicity assay (resazurin). Format: cell-based. The following applies: HEK293, 20 h incubation. As for the experimental part:
Screening against bacteria and yeasts for antimicrobial activity and toxicity against mammalian cells was performed in duplicate (n = 2). […] HEK293 cells were counted manually in a Neubauer hemocytometer and added to compound-containing plates (384-well plates, tissue culture treated (TC); Corning CLS3712) giving a final density of 5000 cells/well in a total volume of 50 μL, using Dulbecco's Modified Eagle Medium (DMEM; Life Technologies 11995-073) with 10% Fetal Bovine Serum (FBS; GE SH30084.03). […] Sigma R7017) and after further incubation for 3 h at 37 °C in 5% CO2. Media only was used as negative control and cells without inhibitors as positive growth control. CC50 (concentration at 50% cytotoxicity) values were calculated by curve fitting the inhibition values vs. log(concentration) using a sigmoidal dose-response function, with variable fitting values for bottom, top and slope. Tamoxifen (Sigma Aldrich, Australia T5648) was used as positive inhibitor control on each plate. Selectivity indices (SI) were calculated by dividing the CC50 value (μg/mL) by the MIC value (μg/mL) for a given bacterial or fungal strain.
On the technique in general: Resazurin is reduced to fluorescent resorufin, in cell work by metabolically active cells.

Data set [2] relates to C. neoformans var. grubii H99 ATCC 208821. Put plainly: Antifungal MIC assay, C. neoformans. The following applies: 35 °C, 36 h, resazurin, growth inhibited ≥ 80%, range tested 0.25 to 32 μg/mL; for Minimum inhibitory concentration (MIC) C. neoformans ATCC 208821: YNB, n = 2. Format: cell-based, Cryptococcus neoformans. As for the experimental part:
Screening against bacteria and yeasts for antimicrobial activity and toxicity against mammalian cells was performed in duplicate (n = 2). […] Becton Dickinson 242720) agar at 30 °C. A yeast suspension of 1 × 10^6 to 5 × 10^6 CFU/mL (as determined by OD530) was prepared from five colonies form the agar plates, and subsequently diluted with Yeast Nitrogen Base media (YNB; Becton Dickinson 233520), and added to each well of the compound containing plates (384-well plates, NBS; […] Plates were covered and incubated at 35 °C for 36 h without shaking. […] Fluconazole (Sigma Aldrich, F8929) was used as a positive inhibitor control on each plate for both strains.

The subject of a further data set is C. albicans ATCC 90028. The data set is described as follows: Antifungal MIC assay, C. albicans. It is filed as cell-based, Candida albicans. The settings on record: YNB, 35 °C, 36 h, growth inhibited ≥ 80%; range tested 0.25 to 32 μg/mL; n = 2. On the procedure:
All screened compounds were > 95% purity as determined by NMR. Dry compounds were dissolved in dimethyl sulfoxide (DMSO), and serially diluted 2-fold to produce an 8-point dose response with DMSO/water and then added into microtiter plates with a final DMSO concentration of 0.5%, providing a concentration range of 0.25 to 32 μg/mL. Screening against bacteria and yeasts for antimicrobial activity and toxicity against mammalian cells was performed in duplicate (n = 2).
For the fungal assays, yeast strains C. neoformans var. grubii H99 ATCC 208821 and C. albicans ATCC 90028 were cultured for 3 days on Yeast Extract-Peptone Dextrose (YPD; Becton Dickinson 242720) agar at 30 °C. A yeast suspension of 1 × 10^6 to 5 × 10^6 CFU/mL (as determined by OD530) was prepared from five colonies form the agar plates, and subsequently diluted with Yeast Nitrogen Base media (YNB; Becton Dickinson 233520), and added to each well of the compound containing plates (384-well plates, NBS; Corning CLS3640) giving a final cell density of 2.5 × 10^3 CFU/mL and a total volume of 50 μL. Plates were covered and incubated at 35 °C for 36 h without shaking. Growth inhibition of C. albicans was determined measuring absorbance at 630 nm (OD630), while the growth inhibition of C. neoformans was determined measuring the difference in absorbance between 600 and 570 nm (OD600-570), after the addition of resazurin (0.001% final concentration; Sigma R7017) and incubation at 35 °C for 2 h, using media only as negative control and fungi without inhibitors as positive control. MIC values were determined as the lowest concentration at which the growth was inhibited at ≥ 80% (equivalent to no visible growth by eye). Fluconazole (Sigma Aldrich, F8929) was used as a positive inhibitor control on each plate for both strains.

Data set [3] deals with S. aureus (MRSA) ATCC 43300. The data set is described as follows: Antibacterial MIC assay, S. aureus (MRSA). The following applies: CAMHB, 18 h, growth inhibited by ≥ 80%, range tested 0.25 to 32 μg/mL, n = 2. It is filed as cell-based, Staphylococcus aureus. On the procedure: Dry compounds were dissolved in dimethyl sulfoxide (DMSO), and serially diluted 2-fold to produce an 8-point dose response with DMSO/water and then added into microtiter plates with a final DMSO concentration of 0.5%, providing a concentration range of 0.25 to 32 μg/mL. Screening against bacteria and yeasts for antimicrobial activity and toxicity against mammalian cells was performed in duplicate (n = 2).
For the bacterial assays, each bacterial strain was cultured in Cation-Adjusted Mueller Hinton Broth (CAMHB; Bacto Laboratories 212322) at 37 °C overnight. Bacterial strains tested were methicillin resistant S. aureus (methicillin-resistant Staphylococcus aureus - MRSA) ATCC 43300, E. coli ATCC 25922, K. pneumoniae K6/ESBL ATCC 700603, P. aeruginosa ATCC 27853, A. baumannii ATCC 19606. A sample of each culture was then diluted 40-fold in fresh CAMHB and incubated at 37 °C for 1.5–3 h. The resultant mid-log phase cultures were diluted with CAMHB (CFU/mL measured by OD600), then added to each well of the compound-containing plates (384-well non-binding surface (NBS) plates; Corning CLS3640), giving a final cell density of 5 × 10^5 CFU/mL and a total volume of 50 μL. Plates were covered and incubated at 37 °C for 18 h without shaking. Inhibition of bacterial growth was determined by measuring absorbance at 600 nm (OD600), using media only as negative control and bacteria without inhibitors as positive control. MIC values were determined as the lowest concentration at which the growth was inhibited by ≥ 80% (equivalent to no visible growth by eye). Colistin sulfate (Sigma Aldrich, Castle Hill, Australia C4461) and vancomycin HCl (Sigma Aldrich, 861987) were used as positive inhibitor controls on each plate for Gram-negative and Gram-positive bacteria, respectively.

Consider `CC12CCC(C(=NC(c3ccccc3)c3cccc[c]3[Pd][Cl])C1=O)C2(C)C.CC12CCC(C(=NC(c3ccccc3)c3cccc[c]3[Pd][Cl])C1=O)C2(C)C` (stereo not drawn) [Compound 3], for which, in data set [1], the “CC50 (concentration of 50% cytotoxicity)” value was found to be 6.0 mg/L. Moreover, in data set [2], the “Minimum inhibitory concentration (MIC) C. neoformans ATCC 208821” value was found to be 0.5 µg/mL. In the data set with C. albicans ATCC 90028, the “Minimum inhibitory concentration (MIC) C. albicans ATCC 90028” value stood at 2 µg/mL. For the same molecule, the “Minimum inhibitory concentration (MIC) S. aureus ATCC 43300” value in data set [3] stood at 16 mg/L.

With `C[C@H](N[C@@H]1C[C@H]2C[C@H](C2(C)C)[C@@]1(C)O)c1cccc[c]1[Pd][Cl].C[C@H](N[C@@H]1C[C@H]2C[C@H](C2(C)C)[C@@]1(C)O)c1cccc[c]1[Pd][Cl]` [Compound 4], the “CC50 (concentration of 50% cytotoxicity)” value in data set [1] was found to be 16.6 mg/L. Besides, the “Minimum inhibitory concentration (MIC) S. aureus ATCC 43300” value in data set [3] came out at 32 mg/L.

Take `CC(C)(C)c1cc(C=NCCN=C2C[C@H]3C[C@H](C3(C)C)[C@@]2(C)O)c([O][Pd][Cl])c(C(C)(C)C)c1` [Compound 6]: the “CC50 (concentration of 50% cytotoxicity)” value in data set [1] was determined as 4.5 mg/L. Moreover, the “Minimum inhibitory concentration (MIC) C. neoformans ATCC 208821” value in data set [2] was 4—16 μg/mL and 4 μg/mL. In addition, in the data set on C. albicans ATCC 90028, the “Minimum inhibitory concentration (MIC) C. albicans ATCC 90028” value is 4—16 μg/mL and 8 μg/mL. In data set [3], the “Minimum inhibitory concentration (MIC) S. aureus ATCC 43300” value stood at 8 mg/L.

On to `CC12CCC(CC1=NCCN=Cc1ccccc1[O][Pd][Cl])C2(C)C` (stereo not drawn) [Compound 7], for which the “CC50 (concentration of 50% cytotoxicity)” value in data set [1] is >32 mg/L. The “Minimum inhibitory concentration (MIC) C. neoformans ATCC 208821” value in data set [2] is 4—16 μg/mL and 4 μg/mL. Besides, the “Minimum inhibitory concentration (MIC) S. aureus ATCC 43300” value in data set [3] was >32 mg/L.

Regarding `CC1(C)[C@H]2CC(=NCCN)[C@](C)(O)[C@@H]1C2.[Cl][Pd][Cl]` [Compound 8], the “CC50 (concentration of 50% cytotoxicity)” value in data set [1] is >32 mg/L. The “Minimum inhibitory concentration (MIC) C. neoformans ATCC 208821” value in data set [2] is 2—4 μg/mL and 4 μg/mL. Moreover, in the data set on C. albicans ATCC 90028, the “Minimum inhibitory concentration (MIC) C. albicans ATCC 90028” value was 8—16 μg/mL and 8 μg/mL. Besides, in data set [3], the “Minimum inhibitory concentration (MIC) S. aureus ATCC 43300” value was >32 mg/L.

For `CN(C)CCN=C1C[C@H]2C[C@H](C2(C)C)[C@@]1(C)O.[Cl][Pd][Cl]` [Compound 9], the “CC50 (concentration of 50% cytotoxicity)” value in data set [1] is >32 mg/L. Also, the “Minimum inhibitory concentration (MIC) C. neoformans ATCC 208821” value in data set [2] is 2—4 μg/mL and 2 μg/mL. In the data set with C. albicans ATCC 90028, the “Minimum inhibitory concentration (MIC) C. albicans ATCC 90028” value is 8—16 μg/mL and 16 μg/mL. Also, in data set [3], the “Minimum inhibitory concentration (MIC) S. aureus ATCC 43300” value is >32 mg/L.

As for `CC1(C)[C@@H]2C[C@H]1[C@@](C)(O)[C@H](NCCN[C@@H]1C[C@H]3C[C@H](C3(C)C)[C@@]1(C)O)C2.[Cl][Pd][Cl]` [Compound 10], the “CC50 (concentration of 50% cytotoxicity)” value in data set [1] was >32 mg/L. Also, the “Minimum inhibitory concentration (MIC) C. neoformans ATCC 208821” value in data set [2] turned out to be 4 µg/mL. Further, the “Minimum inhibitory concentration (MIC) C. albicans ATCC 90028” value in the data set with C. albicans ATCC 90028 was 4 µg/mL. The “Minimum inhibitory concentration (MIC) S. aureus ATCC 43300” value in data set [3] is >32 mg/L.

Turning to `CN(C)CCN=CC1=CCC2CC1C2(C)C.[Cl][Pd][Cl]` (stereo not drawn) [Compound 11], the “CC50 (concentration of 50% cytotoxicity)” value in data set [1] turned out to be 10.8 mg/L. For the same molecule, the “Minimum inhibitory concentration (MIC) S. aureus ATCC 43300” value in data set [3] was >32 mg/L.

Turning to `CN(C)CCNCC1=CCC2CC1C2(C)C.[Cl][Pd][Cl]` (stereo not drawn) [Compound 12], the “CC50 (concentration of 50% cytotoxicity)” value in data set [1] is >32 mg/L. Moreover, the “Minimum inhibitory concentration (MIC) C. albicans ATCC 90028” value with C. albicans ATCC 90028 was 2 µg/mL.

Regarding `OC(Cn1cncn1)(Cn1cncn1)c1ccc(F)cc1F` [fluconazole, Fluconazole, reference compound], the MIC in data set [2] (Cryptococcus neoformans, ATCC208821, YNB, n = 2, read-out: Minimum inhibitory concentration (MIC) C. neoformans ATCC 208821) came to 8 mg/L (≈ 26.1 µM).
